Assays:
[1] = target: Sodium-dependent noradrenaline transporter (Homo sapiens, UniProt P23975)
[2] = target: T1, Alpha-2A adrenergic receptor (Homo sapiens, UniProt P08913)
T1 sequence (P08913 whole entry): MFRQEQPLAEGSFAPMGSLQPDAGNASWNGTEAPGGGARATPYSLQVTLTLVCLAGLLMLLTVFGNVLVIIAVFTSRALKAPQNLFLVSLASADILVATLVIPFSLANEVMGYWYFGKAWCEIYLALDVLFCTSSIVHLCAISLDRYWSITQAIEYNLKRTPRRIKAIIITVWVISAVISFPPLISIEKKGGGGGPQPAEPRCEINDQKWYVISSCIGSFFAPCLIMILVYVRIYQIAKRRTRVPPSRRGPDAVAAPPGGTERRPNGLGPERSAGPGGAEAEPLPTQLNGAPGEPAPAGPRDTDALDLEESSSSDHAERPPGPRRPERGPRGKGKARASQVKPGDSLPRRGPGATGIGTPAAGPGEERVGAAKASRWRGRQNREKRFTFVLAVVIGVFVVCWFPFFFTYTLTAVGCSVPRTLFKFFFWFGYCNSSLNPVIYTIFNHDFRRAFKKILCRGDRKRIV

Mu-type opioid receptor = Mu-type opioid receptor (Homo sapiens, UniProt P35372)
Prothrombin = Prothrombin (Homo sapiens, UniProt P00734); type: functional
[3] = target: T2, Alpha-1A adrenergic receptor (Homo sapiens, UniProt P35348); type: functional, cell-based
T2 sequence (P35348 whole entry): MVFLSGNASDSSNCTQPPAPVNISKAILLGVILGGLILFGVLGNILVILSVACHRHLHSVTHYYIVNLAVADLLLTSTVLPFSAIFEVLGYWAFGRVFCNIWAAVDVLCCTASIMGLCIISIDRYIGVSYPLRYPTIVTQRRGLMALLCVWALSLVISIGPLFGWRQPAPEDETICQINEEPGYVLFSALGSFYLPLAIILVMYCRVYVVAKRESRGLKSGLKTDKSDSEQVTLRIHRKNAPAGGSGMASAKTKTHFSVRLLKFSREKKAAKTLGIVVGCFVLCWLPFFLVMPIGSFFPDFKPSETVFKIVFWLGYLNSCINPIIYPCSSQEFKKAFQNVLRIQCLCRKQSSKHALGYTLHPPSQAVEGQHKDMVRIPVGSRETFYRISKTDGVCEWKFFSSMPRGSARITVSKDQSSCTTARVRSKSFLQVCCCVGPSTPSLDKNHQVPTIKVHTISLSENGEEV

[4] = target: Prostaglandin G/H synthase 1 (Homo sapiens, UniProt P23219); type: functional
[5] = target: 3',5'-cyclic-AMP phosphodiesterase 4A (Homo sapiens, UniProt P27815); type: functional
[6] = target: T2, Alpha-1A adrenergic receptor; type: functional, cell-based; remark: listed apart in the source
[7] = target: Voltage-dependent L-type calcium channel subunit alpha-1C (Rattus norvegicus, UniProt P22002); type: functional
[8] = target: T3, Muscarinic acetylcholine receptor M2 (Homo sapiens, UniProt P08172); type: functional, cell-based
T3 sequence (P08172 whole entry): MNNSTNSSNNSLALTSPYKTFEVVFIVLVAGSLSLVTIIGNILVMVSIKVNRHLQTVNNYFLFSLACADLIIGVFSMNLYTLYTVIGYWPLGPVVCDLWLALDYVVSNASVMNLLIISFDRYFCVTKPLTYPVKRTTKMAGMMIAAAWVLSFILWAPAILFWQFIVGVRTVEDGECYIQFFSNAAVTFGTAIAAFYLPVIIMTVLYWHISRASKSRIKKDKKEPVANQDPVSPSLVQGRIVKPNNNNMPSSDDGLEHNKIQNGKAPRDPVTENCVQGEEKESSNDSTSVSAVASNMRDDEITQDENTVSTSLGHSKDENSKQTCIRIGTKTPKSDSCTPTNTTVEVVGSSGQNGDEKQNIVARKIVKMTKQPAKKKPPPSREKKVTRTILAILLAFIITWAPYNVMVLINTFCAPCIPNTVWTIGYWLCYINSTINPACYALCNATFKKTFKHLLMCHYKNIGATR

[9] = target: Sodium-dependent dopamine transporter (Homo sapiens, UniProt Q01959)
Note: assay procedure not described here.

Sequence of Sodium-dependent noradrenaline transporter (P23975 whole entry): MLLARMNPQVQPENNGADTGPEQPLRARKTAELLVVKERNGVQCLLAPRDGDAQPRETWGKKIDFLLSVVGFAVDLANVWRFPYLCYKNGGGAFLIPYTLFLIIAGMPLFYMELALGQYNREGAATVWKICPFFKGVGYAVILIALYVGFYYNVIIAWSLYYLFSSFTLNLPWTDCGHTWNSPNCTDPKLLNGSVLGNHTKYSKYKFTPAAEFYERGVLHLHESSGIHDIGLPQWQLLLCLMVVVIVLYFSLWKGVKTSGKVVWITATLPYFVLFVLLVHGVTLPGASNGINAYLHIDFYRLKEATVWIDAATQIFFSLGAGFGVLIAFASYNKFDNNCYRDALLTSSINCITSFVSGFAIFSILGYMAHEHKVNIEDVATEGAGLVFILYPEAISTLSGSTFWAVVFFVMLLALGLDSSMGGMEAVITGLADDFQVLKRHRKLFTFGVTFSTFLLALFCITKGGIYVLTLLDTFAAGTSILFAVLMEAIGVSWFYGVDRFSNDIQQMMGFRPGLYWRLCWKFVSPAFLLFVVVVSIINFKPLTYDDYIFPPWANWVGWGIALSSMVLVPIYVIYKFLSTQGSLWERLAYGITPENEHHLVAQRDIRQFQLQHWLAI
Sequence of Mu-type opioid receptor (P35372 whole entry): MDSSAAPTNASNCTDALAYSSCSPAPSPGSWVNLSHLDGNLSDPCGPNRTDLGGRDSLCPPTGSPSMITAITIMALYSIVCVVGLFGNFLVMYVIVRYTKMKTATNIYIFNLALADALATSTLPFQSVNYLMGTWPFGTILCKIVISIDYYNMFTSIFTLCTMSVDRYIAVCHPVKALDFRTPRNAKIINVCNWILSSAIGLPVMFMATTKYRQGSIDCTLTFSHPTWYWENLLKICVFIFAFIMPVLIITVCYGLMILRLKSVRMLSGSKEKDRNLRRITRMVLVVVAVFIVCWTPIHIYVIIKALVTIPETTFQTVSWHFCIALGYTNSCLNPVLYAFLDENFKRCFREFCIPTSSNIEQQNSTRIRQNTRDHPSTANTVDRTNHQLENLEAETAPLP
Sequence of 3',5'-cyclic-AMP phosphodiesterase 4A (P27815 whole entry): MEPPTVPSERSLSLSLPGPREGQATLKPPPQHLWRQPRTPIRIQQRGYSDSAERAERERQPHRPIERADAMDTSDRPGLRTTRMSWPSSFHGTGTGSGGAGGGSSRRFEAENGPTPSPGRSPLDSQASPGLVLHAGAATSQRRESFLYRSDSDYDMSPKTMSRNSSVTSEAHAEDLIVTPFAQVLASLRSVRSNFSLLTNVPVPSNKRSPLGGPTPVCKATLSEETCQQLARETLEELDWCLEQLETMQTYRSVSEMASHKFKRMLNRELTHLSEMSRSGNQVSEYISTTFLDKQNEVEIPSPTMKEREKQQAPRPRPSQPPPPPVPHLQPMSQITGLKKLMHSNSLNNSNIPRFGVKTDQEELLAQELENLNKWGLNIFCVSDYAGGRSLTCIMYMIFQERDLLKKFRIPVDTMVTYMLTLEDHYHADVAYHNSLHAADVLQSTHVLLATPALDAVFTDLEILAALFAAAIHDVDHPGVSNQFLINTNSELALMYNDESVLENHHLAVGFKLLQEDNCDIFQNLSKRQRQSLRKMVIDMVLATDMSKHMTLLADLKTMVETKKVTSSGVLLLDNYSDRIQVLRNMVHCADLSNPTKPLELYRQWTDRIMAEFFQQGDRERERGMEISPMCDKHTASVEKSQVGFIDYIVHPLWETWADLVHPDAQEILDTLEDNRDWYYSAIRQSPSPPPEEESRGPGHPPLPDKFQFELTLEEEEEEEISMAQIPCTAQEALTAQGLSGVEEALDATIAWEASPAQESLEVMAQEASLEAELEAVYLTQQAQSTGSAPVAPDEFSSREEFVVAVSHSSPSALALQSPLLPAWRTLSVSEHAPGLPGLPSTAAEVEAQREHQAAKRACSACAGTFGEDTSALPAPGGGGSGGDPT
Sequence of Prostaglandin G/H synthase 1 (P23219 whole entry): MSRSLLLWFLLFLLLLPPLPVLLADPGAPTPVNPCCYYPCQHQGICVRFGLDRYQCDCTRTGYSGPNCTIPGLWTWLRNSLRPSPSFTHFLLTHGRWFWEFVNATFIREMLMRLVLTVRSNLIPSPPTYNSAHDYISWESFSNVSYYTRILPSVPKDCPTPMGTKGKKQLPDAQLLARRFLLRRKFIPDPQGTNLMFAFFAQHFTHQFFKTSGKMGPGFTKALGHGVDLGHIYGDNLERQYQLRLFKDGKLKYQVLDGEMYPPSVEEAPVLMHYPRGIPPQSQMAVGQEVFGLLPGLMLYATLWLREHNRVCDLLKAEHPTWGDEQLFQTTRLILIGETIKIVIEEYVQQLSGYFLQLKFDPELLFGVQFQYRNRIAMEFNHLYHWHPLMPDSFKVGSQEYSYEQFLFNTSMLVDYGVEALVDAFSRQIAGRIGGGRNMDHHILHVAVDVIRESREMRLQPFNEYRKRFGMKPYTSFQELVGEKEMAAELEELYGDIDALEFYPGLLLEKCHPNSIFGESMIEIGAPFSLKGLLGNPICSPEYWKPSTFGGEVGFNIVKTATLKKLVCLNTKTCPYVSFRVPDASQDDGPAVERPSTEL
Sequence of Sodium-dependent dopamine transporter (Q01959 whole entry): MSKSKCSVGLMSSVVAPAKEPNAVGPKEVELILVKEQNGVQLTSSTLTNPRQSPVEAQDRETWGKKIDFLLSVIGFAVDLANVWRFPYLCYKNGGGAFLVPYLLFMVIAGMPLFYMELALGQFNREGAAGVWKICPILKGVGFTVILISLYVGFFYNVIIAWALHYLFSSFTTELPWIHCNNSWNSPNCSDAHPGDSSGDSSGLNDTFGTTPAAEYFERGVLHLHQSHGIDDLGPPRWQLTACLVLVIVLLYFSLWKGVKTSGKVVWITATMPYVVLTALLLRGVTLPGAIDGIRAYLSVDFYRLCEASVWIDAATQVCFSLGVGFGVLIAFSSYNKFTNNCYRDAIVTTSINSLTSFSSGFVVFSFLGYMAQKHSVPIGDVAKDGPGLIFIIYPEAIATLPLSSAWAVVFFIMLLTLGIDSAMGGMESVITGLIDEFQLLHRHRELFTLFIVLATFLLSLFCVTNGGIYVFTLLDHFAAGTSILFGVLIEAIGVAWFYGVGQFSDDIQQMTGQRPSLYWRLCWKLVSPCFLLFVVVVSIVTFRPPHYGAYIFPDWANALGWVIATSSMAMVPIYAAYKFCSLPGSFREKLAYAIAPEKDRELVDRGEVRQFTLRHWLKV

Structure (SMILES) | AC50 [1] [µM] | AC50 [2] [µM] | AC50 (Mu-type opioid receptor) [µM] | AC50 (Prothrombin) [µM] | AC50 [3] [µM] | AC50 [4] [µM] | AC50 [5] [µM] | AC50 [6] [µM] | AC50 [7] [µM] | AC50 [8] [µM] | AC50 [9] [µM]
COc1cccc2c1C(=O)c1c(O)c3c(c(O)c1C2=O)C[C@@](O)(C(=O)CO)C[C@@H]3O[C@H]1C[C@H](N)[C@H](O[C@@H]2CCCCO2)[C@H](C)O1 [PIRARUBICIN] | > 30 | > 30 | > 30 | > 30 | > 10 | 0.5 | > 30 | – | – | – | –
CC(C)Nc1cccnc1N1CCN(C(=O)c2cc3cc(NS(C)(=O)=O)ccc3[nH]2)CC1 [DELAVIRDINE] | > 30 | 13.4 | 13.9 | > 30 | > 30 | > 30 | > 30 | – | – | – | –
CO[C@@]1(NC(=O)C(C(=O)O)c2ccc(O)cc2)C(=O)N2C(C(=O)O)=C(CSc3nnnn3C)CO[C@@H]21 (stereo partly specified) [MOXALACTAM] | > 30 | > 30 | > 30 | > 30 | > 30 | 9.25 | > 30 | – | – | – | –
CNC1(c2ccccc2Cl)CCCCC1=O (stereo unspecified) [KETAMINE] | > 30 | > 30 | 7.63 | > 30 | > 30 | > 30 | > 30 | – | – | – | –
COC(=O)CCc1ccc(OCC(O)CNC(C)C)cc1 (stereo unspecified) [ESMOLOL] | – | – | – | – | – | – | – | > 30 | > 30 | > 30 | > 30
Cc1cccc(C)c1NC(=O)c1cc(S(N)(=O)=O)c(Cl)cc1O [XIPAMIDE] | > 30 | > 30 | > 30 | > 30 | > 30 | > 30 | > 30 | – | – | – | –
C=CCOc1ccc(CC(=O)O)cc1Cl [ALCLOFENAC] | > 30 | > 30 | > 30 | > 30 | > 30 | > 30 | > 30 | – | – | – | –
Cc1ccc(C(C)C)c(O)c1 [THYMOL] | 23.3 | > 30 | > 30 | > 30 | 25.8 | > 30 | > 30 | – | – | – | –
N#Cc1ccnc(N2C(=O)CC[C@H]2C(=O)N(c2cncc(F)c2)[C@H](C(=O)NC2CC(F)(F)C2)c2ccccc2Cl)c1 [IVOSIDENIB] | > 30 | > 30 | > 30 | > 30 | > 30 | > 30 | > 30 | – | – | – | –
C[C@@H](CN1CC(=O)NC(=O)C1)N1CC(=O)NC(=O)C1 [DEXRAZOXANE] | > 30 | > 30 | > 30 | > 30 | > 30 | 2.16 | > 30 | – | – | – | –
O=c1[nH]c2ccccc2n1CCN1CCN(c2cccc(C(F)(F)F)c2)CC1 [FLIBANSERIN] | > 30 | 10.3 | 1.3 | > 10 | 0.391 | > 30 | > 30 | – | – | – | –
N=C(N)NCC1COc2ccccc2O1 (stereo unspecified) [GUANOXAN] | 5.56 | 0.15 | > 30 | > 30 | 21.3 | > 30 | > 30 | – | – | – | –
CC(C)(Oc1ccc(Cl)cc1)C(=O)NC(=O)NCN1CCOCC1 [PLAFIBRIDE] | > 30 | > 30 | > 30 | > 30 | > 30 | > 30 | > 30 | – | – | – | –
C[C@]12CC[C@@H]3c4ccc(OC(=O)N(CCCl)CCCl)cc4CC[C@H]3[C@@H]1CC[C@@H]2OP(=O)(O)O [ESTRAMUSTINE PHOSPHATE] | > 30 | > 30 | > 30 | > 30 | > 30 | > 30 | > 30 | – | – | – | –
CC#CC(=O)N1CCC[C@H]1c1nc(-c2ccc(C(=O)Nc3ccccn3)cc2)c2c(N)nccn12 [ACALABRUTINIB] | > 30 | > 30 | > 30 | > 30 | > 30 | > 30 | > 30 | – | – | – | –
O=NN(CCCl)C(=O)NC1CCCCC1 [LOMUSTINE] | > 30 | 3.5 | > 30 | > 30 | > 3 | > 30 | 25.7 | – | – | – | –
CC1=C(C/C=C(\C)CCC[C@H](C)CCC[C@H](C)CCCC(C)C)C(=O)c2ccccc2C1=O [PHYTONADIONE] | > 30 | > 30 | > 30 | > 30 | > 30 | > 30 | 9.52 | – | – | – | –
CN1CCC(N(Cc2cccs2)c2ccccc2)CC1 [THENALIDINE] | 0.399 | 8.45 | 7.42 | > 30 | 23.5 | > 30 | > 30 | – | – | – | –
CCCCCCO[C@@H](C)c1cccc(-c2csc(NC(=O)c3cc(Cl)c(/C=C(\C)C(=O)O)c(Cl)c3)n2)c1OC [LUSUTROMBOPAG] | > 30 | > 30 | > 30 | 19.3 | 13.5 | 2.15 | 16.2 | – | – | – | –
OC[C@H]1NC[C@H](O)[C@@H](O)[C@H]1O | > 30 | > 30 | > 30 | > 30 | > 30 | > 30 | > 30 | – | – | – | –
CCCCCCCCCCCCCCCC(=O)OC[C@H](COP(=O)([O-])OCC[N+](C)(C)C)OC(=O)CCCCCCCCCCCCCCC [COLFOSCERIL PALMITATE] | > 30 | > 30 | > 30 | > 30 | > 30 | > 30 | > 30 | – | – | – | –
CCCCCCCC/C=C\CCCCCCCC(=O)O [OLEIC ACID] | 27.2 | > 30 | > 30 | > 30 | > 30 | 6.68 | > 30 | – | – | – | –
NC(=O)C1(N2CCCCC2)CCN(CCCC(=O)c2ccc(F)cc2)CC1 [PIPAMPERONE] | > 30 | 5.47 | 7.02 | > 30 | 0.398 | > 30 | > 30 | – | – | – | –
Cc1cc(C)cc(OCC2CNC(=O)O2)c1 (stereo unspecified) [METAXALONE] | 10.2 | > 30 | > 30 | > 30 | > 30 | > 30 | > 30 | – | – | – | –
CC(C)NC[C@H](O)COc1ccc(O)cc1 [PRENALTEROL] | 4.55 | > 30 | > 30 | > 30 | > 30 | 8.99 | > 30 | – | – | – | –
O=C(O)[C@@H](S)[C@@H](S)C(=O)O | > 30 | > 30 | > 30 | 2.64 | – | > 30 | > 30 | – | – | – | –
NC(=O)C1(N2CCCCC2)CCN(CCCN2c3ccccc3CCc3ccccc32)CC1 [CARPIPRAMINE] | 11.7 | 0.208 | 0.342 | > 30 | – | > 30 | > 30 | – | – | – | –
O=C(O)[C@H](O)[C@@H](O)[C@H](O)[C@H](O)CO [GLUCONIC ACID] | > 30 | > 30 | > 30 | > 30 | > 30 | > 30 | 21.4 | – | – | – | –

From ChEMBL document CHEMBL5291721, “A preclinical secondary pharmacology resource illuminates target-adverse drug reaction associations of marketed drugs” (Nat Commun, 2023)
